In PubChem BioAssay AID1963964 (Molecular Pharmacology Branch, DTP, NCI, 2024):

System: 997726-040-R-J2-PDC tumor spheroids, viability
Assay: Anticancer human tumor 997726-040-R-J2-PDC patient-derived squamous cell lung carcinoma cell line growth inhibition [PI3K]
Details: spheroids with HUVEC and MSC; for viability, T/C: stronger effect = lower value
In short: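 Tumor cells grown as multi-cell spheroids with HUVEC endothelial cells and MSC fibroblast-like stroma were treated with targeted agents combined with inavolisib, alpelisib, duvelisib or copanlisib. Doses fell in half-log steps from near clinical Cmax, else from 10 microM. Viability was measured.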

[1] = curve of first compound, second compound 0.0316 µM
[2] = curve of first compound, second compound 0.1 µM
[3] = curve of first compound, second compound 0.316 µM
[4] = curve of first compound, second compound 1 µM
[5] = curve of first compound, second compound 3.16 µM
[6] = curve of first compound, second compound 10 µM
[7] = second compound 0.0316 µM, first compound 0.0316 µM
[8] = second compound 0.0316 µM, first compound 0.1 µM
[9] = second compound 0.0316 µM, first compound 0.316 µM
[10] = second compound 0.0316 µM, first compound 1 µM
[11] = second compound 0.0316 µM, first compound 3.16 µM
[12] = second compound 0.0316 µM, first compound 10 µM
[13] = second compound 0.1 µM, first compound 0.0316 µM
[14] = second compound 0.1 µM, first compound 0.1 µM
[15] = second compound 0.1 µM, first compound 0.316 µM
[16] = second compound 0.1 µM, first compound 1 µM
[17] = second compound 0.1 µM, first compound 3.16 µM
[18] = second compound 0.1 µM, first compound 10 µM
[19] = second compound 0.316 µM, first compound 0.0316 µM
[20] = second compound 0.316 µM, first compound 0.1 µM
[21] = second compound 0.316 µM, first compound 0.316 µM
[22] = second compound 0.316 µM, first compound 1 µM
[23] = second compound 0.316 µM, first compound 3.16 µM
[24] = second compound 0.316 µM, first compound 10 µM
[25] = second compound 1 µM, first compound 0.0316 µM
[26] = second compound 1 µM, first compound 0.1 µM
[27] = second compound 1 µM, first compound 0.316 µM
[28] = second compound 1 µM, first compound 1 µM
[29] = second compound 1 µM, first compound 3.16 µM
[30] = second compound 1 µM, first compound 10 µM
[31] = second compound 3.16 µM, first compound 0.0316 µM
[32] = second compound 3.16 µM, first compound 0.1 µM
[33] = second compound 3.16 µM, first compound 0.316 µM
[34] = second compound 3.16 µM, first compound 1 µM
[35] = second compound 3.16 µM, first compound 3.16 µM
[36] = second compound 3.16 µM, first compound 10 µM
[37] = second compound 10 µM, first compound 0.0316 µM
[38] = second compound 10 µM, first compound 0.1 µM
[39] = second compound 10 µM, first compound 0.316 µM
[40] = second compound 10 µM, first compound 1 µM
[41] = second compound 10 µM, first compound 3.16 µM
[42] = second compound 10 µM, first compound 10 µM
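Also: spheroids exposed to compounds for seven days before readout.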

Cn1ncc(Cl)c1-c1cc(C(=O)NC(CN)Cc2cccc(F)c2)sc1Cl (stereo not drawn) + Cc1nc(NC(=O)N2CCCC2C(N)=O)sc1-c1ccnc(C(C)(C)C(F)(F)F)c1
IC50 [1]: 96.7 nM | IC50 [2]: 77.4 nM | IC50 [3]: 32.1 nM | IC50 [4]: < 31.6 nM | IC50 [5]: < 31.6 nM | IC50 [6]: < 31.6 nM | viability, T/C [7]: 68% | viability, T/C [8]: 49.7% | viability, T/C [9]: 23.7% | viability, T/C [10]: 11.6% | viability, T/C [11]: 9.66% | viability, T/C [12]: 5.52% | viability, T/C [13]: 65.4% | viability, T/C [14]: 45.7% | viability, T/C [15]: 25% | viability, T/C [16]: 13% | viability, T/C [17]: 9.73% | viability, T/C [18]: 6.2% | viability, T/C [19]: 50% | viability, T/C [20]: 37.7% | viability, T/C [21]: 22.5% | viability, T/C [22]: 11.7% | viability, T/C [23]: 9.53% | viability, T/C [24]: 3.13% | viability, T/C [25]: 39.9% | viability, T/C [26]: 35.2% | viability, T/C [27]: 21.6% | viability, T/C [28]: 11.3% | viability, T/C [29]: 8.3% | viability, T/C [30]: 2.53% | viability, T/C [31]: 25.3% | viability, T/C [32]: 22.5% | viability, T/C [33]: 13.9% | viability, T/C [34]: 10% | viability, T/C [35]: 6.18% | viability, T/C [36]: 1.9% | viability, T/C [37]: 15% | viability, T/C [38]: 11.3% | viability, T/C [39]: 7.08% | viability, T/C [40]: 4.6% | viability, T/C [41]: 3.71% | viability, T/C [42]: 1.05%

C=CC(=O)N1CCN(c2nc(=O)n(-c3c(C)ccnc3C(C)C)c3nc(-c4c(O)cccc4F)c(F)cc23)C(C)C1 (stereo not drawn) + CC(Nc1ncnc2nc[nH]c12)c1cc2cccc(Cl)c2c(=O)n1-c1ccccc1
IC50 [1]: > 10000 nM | IC50 [2]: > 10000 nM | IC50 [3]: > 10000 nM | IC50 [4]: > 10000 nM | IC50 [5]: > 10000 nM | IC50 [6]: > 10000 nM | viability, T/C [7]: 91.5% | viability, T/C [8]: 112% | viability, T/C [9]: 107% | viability, T/C [10]: 106% | viability, T/C [11]: 123% | viability, T/C [12]: 130% | viability, T/C [13]: 108% | viability, T/C [14]: 103% | viability, T/C [15]: 101% | viability, T/C [16]: 104% | viability, T/C [17]: 113% | viability, T/C [18]: 126% | viability, T/C [19]: 104% | viability, T/C [20]: 95% | viability, T/C [21]: 104% | viability, T/C [22]: 102% | viability, T/C [23]: 133% | viability, T/C [24]: 113% | viability, T/C [25]: 86.7% | viability, T/C [26]: 86.4% | viability, T/C [27]: 92.7% | viability, T/C [28]: 98.4% | viability, T/C [29]: 120% | viability, T/C [30]: 109% | viability, T/C [31]: 72.2% | viability, T/C [32]: 75.4% | viability, T/C [33]: 78.9% | viability, T/C [34]: 85.3% | viability, T/C [35]: 96.2% | viability, T/C [36]: 95.6% | viability, T/C [37]: 58.1% | viability, T/C [38]: 51% | viability, T/C [39]: 60.8% | viability, T/C [40]: 55.8% | viability, T/C [41]: 64.7% | viability, T/C [42]: 68.8%

CC1(C)CCC(Nc2ncc(C(F)(F)F)c(-c3c[nH]c4c(P(C)(C)=O)c(C#N)ccc34)n2)CN1 (stereo not drawn)
viability, T/C (compound 0.0316 µM): 45.6% [middle of 4 runs] | viability, T/C (compound 0.1 µM): 42.6% [middle of 4 runs] | viability, T/C (compound 0.316 µM): 48% [middle of 4 runs] | viability, T/C (compound 1 µM): 44% [middle of 4 runs] | viability, T/C (compound 10 µM): 23.3% [middle of 4 runs]

CNC(=O)c1ccc(N2C(=S)N(c3ccc(C#N)c(C(F)(F)F)c3)C(=O)C2(C)C)cc1F + Cc1nc(NC(=O)N2CCCC2C(N)=O)sc1-c1ccnc(C(C)(C)C(F)(F)F)c1
IC50 [1]: > 10000 nM | IC50 [2]: > 10000 nM | IC50 [3]: > 10000 nM | IC50 [4]: < 31.6 nM | IC50 [5]: < 31.6 nM | IC50 [6]: < 31.6 nM | viability, T/C [7]: 74.4% | viability, T/C [8]: 82.2% | viability, T/C [9]: 80.9% | viability, T/C [10]: 89.3% | viability, T/C [11]: 81.9% | viability, T/C [12]: 78.8% | viability, T/C [13]: 74.5% | viability, T/C [14]: 81.3% | viability, T/C [15]: 73.5% | viability, T/C [16]: 69.7% | viability, T/C [17]: 70.5% | viability, T/C [18]: 71.1% | viability, T/C [19]: 51.3% | viability, T/C [20]: 65% | viability, T/C [21]: 54.5% | viability, T/C [22]: 57.9% | viability, T/C [23]: 48.9% | viability, T/C [24]: 54.6% | viability, T/C [25]: 41.7% | viability, T/C [26]: 44.2% | viability, T/C [27]: 37.5% | viability, T/C [28]: 38.2% | viability, T/C [29]: 39.9% | viability, T/C [30]: 39% | viability, T/C [31]: 32.7% | viability, T/C [32]: 29.3% | viability, T/C [33]: 26.9% | viability, T/C [34]: 29.5% | viability, T/C [35]: 30.4% | viability, T/C [36]: 25.5% | viability, T/C [37]: 16.1% | viability, T/C [38]: 16.9% | viability, T/C [39]: 12.6% | viability, T/C [40]: 13.2% | viability, T/C [41]: 11.9% | viability, T/C [42]: 9.07%

C#Cc1c(F)ccc2cc(O)cc(-c3ncc4c(N5CC6CCC(C5)N6)nc(OCC56CCCN5CC(F)C6)nc4c3F)c12 (stereo not drawn)
viability, T/C (compound 0.0316 µM): 105% [middle of 4 runs] | viability, T/C (compound 0.1 µM): 96% [middle of 4 runs] | viability, T/C (compound 0.316 µM): 96.5% [middle of 4 runs] | viability, T/C (compound 1 µM): 96.6% [middle of 4 runs] | viability, T/C (compound 3.16 µM): 92.6% [middle of 4 runs] | viability, T/C (compound 10 µM): 77.5% [middle of 4 runs] | IC50 (curve of compound): > 10000 nM
